Where “and” joins values, the source holds several entries; their conditions need not be identical. Equal values may be shown once.
Key:
[1] = molecular target: T1, human 5-HT2A (h5-HT2A) receptor (Homo sapiens, UniProt P28223); assay: FLIPR assay, human 5-HT2A, agonist mode; type: cell-based
T1 construct: expressed in transfected cells; grown under G418 and hygromycin B selection
Description: I. Assessment of the Effect of Exemplary Compounds of Formula I Targeting on Human 5-HT2A (h5-HT2A) Receptor Under Agonist Mode:
I.c. Experimental Methods and Procedures: • 1. Cells were cultured in cell culture medium (DMEM containing 10% FBS, 1×penicillin-streptomycin 300 μg/ml G418 and 100 μg/ml hygromycin B) at 37° C., 5% (v/v) CO2. • 2. One day before the assays, the cells were detached using TrypLE™ Express and cells were counted using cell counter. Only cells with >85% viability were used for the assay. • 3. 20000 cells/well were seeded in 30 μl/well culture medium to a 384-well cell plate and cells were incubated overnight at 37° C., 5% (v/v) CO2. • 4. On the assay day, 2×dye solution was prepared following the manual of the FLIPR® Calcium 6 Assay Kit: i. The dye was diluted with assay buffer (20 mM HEPES in 1×HBSS, PH7.4); ii. Probenecid was added to the final concentration of 5 mM; iii. Vortex vigorously for 1-2 minutes. • 5. Medium was removed from cell plate by flicking the cell plate on towel papers. • 6. 10 μl of assay buffer and 10 μl of 2×dye solution was added to each well of the cell plate. • 7. The cell plate was placed on plate shaker, the plate was agitated at 600 rpm for 2 minutes. The plate was incubated at 37° C. for 2 hours followed by additional 15-minute incubation at 25° C. • 8. 3×compound in assay buffer was prepared: a. Reference compounds were diluted to required concentration with DMSO. The compounds were added to a 384-well compound plate; b. Serial dilutions were performed; c. 10 mM test compounds were added to the compound plate, and 3-fold serial dilutions were performed. d. Transfer 60 nl/well of compounds from source plate to a 384-well compound plate (Corning, 3657) by using an Echo; e. Add 20 μl/well assay buffer to the compound plate; f. Mix the plate on plate shaker for 2 mins; • 9. The cell plate, compound plate and tips were put into FLIPR, 10 μl of 3× compound was transferred to the cell plate per well with FLIPR.
• i. The normalized fluorescence reading (RFU) was calculated as shown below, where Fmax and Fmin stand for maximum and minimum of calcium signal during defined time window: RFU=Fmax−Fmin. • ii. Calculate the percentage activation using following equation:
[formula] • Iii. Calculate EC50 by fitting % activation against log of compound concentrations with Hill equation using XLfit.

[2] = Liver microsomes stability, rat; conditions: for CLint scaled at 2 μM / half-life at 2 μM / microsomal CLint at 2 μM: rat liver microsomes
[3] = Liver microsomes stability, mouse; conditions: for CLint scaled at 2 μM / half-life at 2 μM / microsomal CLint at 2 μM: male, microsomes
[4] = Liver microsomes stability, human; conditions: for Predicted hepatic CL / Remaining Percentage / CLint scaled at 2 μM / half-life at 2 μM / microsomal CLint at 2 μM: human; for CLint scaled at 2 μM / half-life at 2 μM / microsomal CLint at 2 μM: pooled human liver microsomes
Male, C57BL/6J mice = assay: Mouse head twitch; type: in vivo; conditions: for other behavioural and somatic signs accompanying head twitches: psilocybin at 3 and 10 mg/kg, 5-MeO DMT over 3-30 mg/kg
Description: The effect of different doses of representative compounds of Formula I are evaluated on head-twitch response (HTR) and other behavioural responses as behavior-based models of psychedelic activity.
Male, C57BL/6J mice (body weight range 20-30 g) were dosed with the appropriate dose of test article, and following a 1-minute pre-treatment time, placed in individual observation chambers. Animals were visually assessed for the incidence head twitches continuously over a 1 hr period. Head twitches were defined as a rapid jerk of the head which was not elicited by an external tactile stimulus (Come and Pickering, Psychopharmacologia, 1967, 11(1): 65-78). Each head twitch was individually counted by a trained observer, and the data expressed as the mean±SEM of 6-10 mice per group. Mice were used in a single experiment only.

T1 sequence (P28223 whole entry): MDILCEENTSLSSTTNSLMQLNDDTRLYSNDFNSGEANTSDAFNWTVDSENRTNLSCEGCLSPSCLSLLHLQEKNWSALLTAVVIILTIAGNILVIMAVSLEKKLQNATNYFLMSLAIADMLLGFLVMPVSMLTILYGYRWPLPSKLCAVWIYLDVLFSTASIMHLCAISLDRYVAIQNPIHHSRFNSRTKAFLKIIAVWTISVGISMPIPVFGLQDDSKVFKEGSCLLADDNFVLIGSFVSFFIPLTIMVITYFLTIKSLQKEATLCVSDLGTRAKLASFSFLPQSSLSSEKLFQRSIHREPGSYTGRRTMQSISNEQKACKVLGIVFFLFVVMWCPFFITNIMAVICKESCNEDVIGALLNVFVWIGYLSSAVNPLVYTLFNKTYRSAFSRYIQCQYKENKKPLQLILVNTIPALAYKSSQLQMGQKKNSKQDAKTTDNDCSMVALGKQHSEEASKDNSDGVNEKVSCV

## COc1cc2c(cc1OC)C(C[C@H]1CCCN1C)CN2 (stereo partly drawn) [(R) I-81, 5,6-Dimethoxy-3-(((R)-I-methylpyrrolidin-2-yl)methyl)indoline]
[1]
  5-HT2A (FLIPR) RFU@10 μM: 294 RFU

## CN1CCC[C@@H]1C[C@H]1CNc2ccc(F)cc21 [(R),(R)-I-47, (R)-5-fluoro-3-(((R)-I-methylpyrrolidin-2-yl)methyl)indoline]
[2]
  Predicted hepatic CL: 45.31 mL/min/kg
  CLint scaled at 2 μM: 253 mL/min/kg
  half-life at 2 μM: 0.164 h
  microsomal CLint at 2 μM: 141 µL/min/mg
[2]; With NADPH, 0 min
  Remaining Percentage: 100.00%
[2]; With NADPH, 30 min
  Remaining Percentage: 5.12%
[2]; With NADPH, 60 min
  Remaining Percentage: 1.45%
[2]; Without NADPH, 0 min
  Remaining Percentage: 100.00%
[2]; Without NADPH, 30 min
  Remaining Percentage: 108.30%
[2]; Without NADPH, 60 min
  Remaining Percentage: 100.00%
[1]
  EC50: 91 nM
  5-HT2A (FLIPR) RFU@10 μM: 787 RFU
[3]
  Predicted hepatic CL: 13.24 mL/min/kg
  CLint scaled at 2 μM: 15.5 mL/min/kg
  half-life at 2 μM: 6.51 h
  microsomal CLint at 2 μM: 3.55 µL/min/mg
[3]; With NADPH, 0 min
  Remaining Percentage: 100.00%
[3]; With NADPH, 30 min
  Remaining Percentage: 114.03%
[3]; With NADPH, 60 min
  Remaining Percentage: 89.90%
[3]; Without NADPH, 0 min
  Remaining Percentage: 100.00%
[3]; Without NADPH, 30 min
  Remaining Percentage: 114.71%
[3]; Without NADPH, 60 min
  Remaining Percentage: 87.16%
[4]
  Predicted hepatic CL: 2.74 mL/min/kg
  CLint scaled at 2 μM: 3.15 mL/min/kg
  half-life at 2 μM: 9.19 h
  microsomal CLint at 2 μM: 2.51 µL/min/mg
[4]; With NADPH, 0 min
  Remaining Percentage: 100.00%
[4]; With NADPH, 30 min
  Remaining Percentage: 108.74%
[4]; With NADPH, 60 min
  Remaining Percentage: 92.73%
[4]; Without NADPH, 0 min
  Remaining Percentage: 100.00%
[4]; Without NADPH, 30 min
  Remaining Percentage: 102.35%
[4]; Without NADPH, 60 min
  Remaining Percentage: 95.13%

## [2H]C([2H])([2H])N1CCC[C@@H]1CC1CNc2cc(OC)c(OC)cc21 (stereo partly drawn) [(R)-I-82, 5,6-dimethoxy-3-(((R)-I-(methyl-d3)pyrrolidin-2-yl)methyl)indoline]
[1]
  EC50: 1560 nM
  5-HT2A (FLIPR) RFU@10 μM: 479 RFU

## COc1cccc2c1C(C[C@H]1CCCN1C)CN2 (stereo partly drawn) [(R)-I-94, 4-Methoxy-3-(((R)-I-methylpyrrolidin-2-yl)methyl)indoline]
[2]
  Predicted hepatic CL: 19.77 mL/min/kg
  CLint scaled at 2 μM: 30.8 mL/min/kg
  half-life at 2 μM: 1.34 h
  microsomal CLint at 2 μM: 17.2 µL/min/mg
[2]; With NADPH, 0 min
  Remaining Percentage: 100.00%
[2]; With NADPH, 30 min
  Remaining Percentage: 84.38%
[2]; With NADPH, 60 min
  Remaining Percentage: 59.71%
[2]; Without NADPH, 0 min
  Remaining Percentage: 100.00%
[2]; Without NADPH, 30 min
  Remaining Percentage: 104.88%
[2]; Without NADPH, 60 min
  Remaining Percentage: 96.34%
[1]
  EC50: 9 nM
  5-HT2A (FLIPR) RFU@10 μM: 545 RFU
[3]
  Predicted hepatic CL: >84.35 mL/min/kg
  CLint scaled at 2 μM: > 1340 mL/min/kg
  half-life at 2 μM: < 0.0752 h
  microsomal CLint at 2 μM: > 307 µL/min/mg
[3]; With NADPH, 0 min
  Remaining Percentage: 100.00%
[3]; With NADPH, 30 min
  Remaining Percentage: 0.84%
[3]; With NADPH, 60 min
  Remaining Percentage: 0.29%
[3]; Without NADPH, 0 min
  Remaining Percentage: 100.00%
[3]; Without NADPH, 30 min
  Remaining Percentage: 109.64%
[3]; Without NADPH, 60 min
  Remaining Percentage: 106.02%
[4]
  Predicted hepatic CL: 5.63 mL/min/kg
  CLint scaled at 2 μM: 7.74 mL/min/kg
  half-life at 2 μM: 3.74 h
  microsomal CLint at 2 μM: 6.17 µL/min/mg
[4]; With NADPH, 0 min
  Remaining Percentage: 100.00%
[4]; With NADPH, 30 min
  Remaining Percentage: 100.93%
[4]; With NADPH, 60 min
  Remaining Percentage: 83.11%
[4]; Without NADPH, 0 min
  Remaining Percentage: 100.00%
[4]; Without NADPH, 30 min
  Remaining Percentage: 108.38%
[4]; Without NADPH, 60 min
  Remaining Percentage: 98.20%

## COc1cccc2c1NCC2C[C@H]1CCCN1C (stereo partly drawn) [(R)-I-95, 7-Methoxy-3-(((R)-I-methylpyrrolidin-2-yl)methyl)indoline]
[1]
  5-HT2A (FLIPR) RFU@10 μM: 321 RFU

## COc1ccc2c(c1)C(C[C@H]1CCCN1)CN2 (stereo partly drawn) [(R)-I-165, 5-Methoxy-3-(((R)-pyrrolidin-2-yl)methyl)indoline]
[2]
  Predicted hepatic CL: 31.82 mL/min/kg
  CLint scaled at 2 μM: 75.1 mL/min/kg
  half-life at 2 μM: 0.551 h
  microsomal CLint at 2 μM: 41.9 µL/min/mg
[2]; With NADPH, 0 min
  Remaining Percentage: 100.00%
[2]; With NADPH, 30 min
  Remaining Percentage: 53.50%
[2]; With NADPH, 60 min
  Remaining Percentage: 28.43%
[2]; Without NADPH, 0 min
  Remaining Percentage: 100.00%
[2]; Without NADPH, 30 min
  Remaining Percentage: 106.00%
[2]; Without NADPH, 60 min
  Remaining Percentage: 119.73%
[1]
  EC50: 57 nM
  5-HT2A (FLIPR) RFU@10 μM: 1,318 RFU
[3]
  Predicted hepatic CL: 37.78 mL/min/kg
  CLint scaled at 2 μM: 65.1 mL/min/kg
  half-life at 2 μM: 1.55 h
  microsomal CLint at 2 μM: 14.9 µL/min/mg
[3]; With NADPH, 0 min
  Remaining Percentage: 100.00%
[3]; With NADPH, 30 min
  Remaining Percentage: 90.44%
[3]; With NADPH, 60 min
  Remaining Percentage: 63.99%
[3]; Without NADPH, 0 min
  Remaining Percentage: 100.00%
[3]; Without NADPH, 30 min
  Remaining Percentage: 100.70%
[3]; Without NADPH, 60 min
  Remaining Percentage: 117.77%
[4]
  Predicted hepatic CL: 0.00 mL/min/kg
[4]; human liver microsomes, 2 μM
  T1/2: ∞
[4]; With NADPH, 0 min
  Remaining Percentage: 100.00%
[4]; With NADPH, 30 min
  Remaining Percentage: 111.72%
[4]; With NADPH, 60 min
  Remaining Percentage: 114.92%
[4]; Without NADPH, 0 min
  Remaining Percentage: 100.00%
[4]; Without NADPH, 30 min
  Remaining Percentage: 99.07%
[4]; Without NADPH, 60 min
  Remaining Percentage: 85.51%

## CN1CCC[C@@H]1C[C@@H]1CNc2ccc(F)cc21 [(S),(R)-I-47, (S)-5-fluoro-3-(((R)-I-methylpyrrolidin-2-yl)methyl)indoline]
[1]
  EC50: 76 nM
  5-HT2A (FLIPR) RFU@10 μM: 797 RFU

## COc1ccc2c(c1)C(C[C@@H]1CCCN1C)CN2 (stereo partly drawn) [(S)-I-54, 5-Methoxy-3-(((S)-I-methylpyrrolidin-2-yl)methyl)indoline]
[1]
  5-HT2A (FLIPR) RFU@10 μM: 444 RFU

## COc1ccc2[nH]cc(CCN(C)C)c2c1 [Compound 5-MeO-DMT]
Male, C57BL/6J mice; 1 mg/kg SC
  head twitch response (mean head twitches over 1 hr): 3.0
Male, C57BL/6J mice; 3 mg/kg SC
  head twitch response (mean head twitches over 1 hr): 4.2
Male, C57BL/6J mice; 10 mg/kg SC
  head twitch response (mean head twitches over 1 hr): 7.8
Male, C57BL/6J mice; 30 mg/kg SC
  head twitch response (mean head twitches over 1 hr): 12.3
Male, C57BL/6J mice; SC, psilocybin 0.1-10, 5-MeO DMT 1-30, (R)-I-54 1-60 mg/kg
  head twitch response over the dose range tested: monotonic increase in head twitches
Male, C57BL/6J mice; SC
  other behavioural and somatic signs accompanying head twitches: other behavioural signs associated with 5-HT syndrome (forepaw treading, straub tail, body twitches, backwards walking) emerged

## CN(C)CCc1c[nH]c2ccccc12 [DMT, N,N-dimethyltryptamine, reference compound]
[1]
  5-HT2A (FLIPR) RFU@10 μM: 381 RFU

## CN(C)CCc1c[nH]c2cccc(O)c12 [Psilocin, reference compound]
[1]
  5-HT2A (FLIPR) RFU@10 μM: 416 RFU and 308 RFU

## CN(C)CCc1c[nH]c2cccc(OP(=O)(O)O)c12 [Psilocybin]
Male, C57BL/6J mice; 0.1 mg/kg SC
  head twitch response (mean head twitches over 1 hr): 4.8
Male, C57BL/6J mice; 0.3 mg/kg SC
  head twitch response (mean head twitches over 1 hr): 6.3
Male, C57BL/6J mice; 1 mg/kg SC
  head twitch response (mean head twitches over 1 hr): 16.3
Male, C57BL/6J mice; 3 mg/kg SC
  head twitch response (mean head twitches over 1 hr): 7.8
Male, C57BL/6J mice; 10 mg/kg SC
  head twitch response (mean head twitches over 1 hr): 5.5
Male, C57BL/6J mice; SC
  dose of peak head twitch response: 1 mg/kg
  other behavioural and somatic signs accompanying head twitches: decreased locomotion and decreased core body temperature

Source: patent publication US20260083703A1, “INDOLINE DERIVATIVES AS SEROTONERGIC AGENTS USEFUL FOR THE TREATMENT OF DISORDERS RELATED THERETO” (MINDSET PHARMA INC., priority 2022, published 2026)
